Measured values from US11865125B2, “APKC inhibitors and methods of treating a neurodegenerative disease or disorder” (UNIVERSITY OF SOUTH FLORIDA, priority 2016, dated 2024).
“Also recorded” adds a separate entry of the source.

Columns and labels:
[1] = cited from earlier work
70 kDa PKC-λ/ι = target: T1, 70 kDa PKC-λ/ι (Mus musculus, UniProt Q62074); experiment: brain aPKC (PKC-λ/ι) phosphorylation/activity in mice; format: in vivo
T1 construct: insulin-sensitive 70 kDa PKC-λ/ι in brains of Het-MλKO mice; from tissue; host or cells: mouse brain homogenate
T1 sequence (Q62074 1-595): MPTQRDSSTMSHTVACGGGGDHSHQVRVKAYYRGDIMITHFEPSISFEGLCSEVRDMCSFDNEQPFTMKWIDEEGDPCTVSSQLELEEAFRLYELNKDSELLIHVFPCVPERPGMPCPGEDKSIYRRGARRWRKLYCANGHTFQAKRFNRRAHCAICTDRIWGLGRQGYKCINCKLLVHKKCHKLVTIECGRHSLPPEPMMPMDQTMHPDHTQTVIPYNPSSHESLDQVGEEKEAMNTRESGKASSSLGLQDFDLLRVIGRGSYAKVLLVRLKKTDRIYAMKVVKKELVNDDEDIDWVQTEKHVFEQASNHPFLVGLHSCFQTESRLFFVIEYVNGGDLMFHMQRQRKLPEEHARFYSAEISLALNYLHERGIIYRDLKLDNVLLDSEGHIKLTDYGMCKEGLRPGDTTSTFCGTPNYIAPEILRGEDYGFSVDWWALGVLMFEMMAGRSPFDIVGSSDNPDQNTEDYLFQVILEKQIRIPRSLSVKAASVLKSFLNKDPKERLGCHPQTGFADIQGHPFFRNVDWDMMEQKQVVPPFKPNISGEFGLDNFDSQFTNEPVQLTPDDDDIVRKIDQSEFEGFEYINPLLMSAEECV
Excerpt: (§1) Mouse Studies. Brain samples were obtained from normal and insulin-resistant mice and monkeys used previously, and includes mice originally used in studies of insulin signaling and resistance in liver: (a) 4-6 month old C57Bl/6 mice used in studies of high-fat-feeding [USF Vivarium] [6]; 4-6 month-old male C57Bl/6 ob/ob and lean ob+ mice (Jackson Labs, Bar Harbor, Maine); and (c) 10-12 month-old C57Bl/6 Het-MλKO mice [USF Vivarium] [8]. […] Where indicated normal mice were given a single SC injection of saline or saline containing 1.5 mg/kg ICAPP to follow time-related alterations in brain signaling factors. Where indicated, mice were treated intraperitoneally (IP) with insulin (1 U/kg body weight) or vehicle 15-min before euthanization by administration of Xylazine/Ketamine, followed by whole body perfusion with phosphate-buffered saline and rapid removal of brain and other tissues.
(§2) Tissue Preparations. As described, mouse brains were hemisected sagittally, and one-half was frozen in liquid N2, stored at −80° C., and samples thereof were homogenized in buffer containing 0.25M sucrose, 20 mM Tris/HCl (pH, 7.5), 2 mmol/l EGTA, 2 mM EDTA, 1 mM phenlysulfonoylfluoride (PMSF), 20 μg/ml leupeptin, 10 μg/ml aprotinin, 2 mM Na4P2O7, 2 mM Na3VO4, 2 mM NaF, and 1 μM microcystin, and then supplemented with 1% TritonX-100, 0.6% Nonidet and 150 mM NaCl.
(§3) Western Analyses. As described, Western analyses were conducted with rabbit antisera or mouse monoclonal antibodies (mMab), using: anti-aPKC (Santa Cruz Biotechnologies, Santa Cruz, CA); anti-phospho-threonine-560/555-PKC-ζ/λ/ι (Invitrogen, Carlsbad, CA); anti-p-serine-256-FoxO1 and anti-FoxO1 (Abnova, Walnut, CA); anti-Akt (mMab), anti-phospho-serine-473-Akt, anti-phospho-serine-9-GSK3P anti-GSK313, anti-phospho-serine-253-FoxO3a, anti-FoxO3a, anti-phospho-serine-256-FoxO1, anti-phospho-serine-193-FoxO4; anti-FoxO1, anti-phospho-serine-2448-mTOR, anti-mTOR, anti-β-amyloid (anti-5-10 kDa-Aβ1-40/42) and anti-amyloid precursor protein (anti-120 kDa-APP) (Cell Signaling Technologies, Danvers, MA); and anti-phospho-serine-202-tau, anti-phospho-threonine-231-tau (Gene Tex, Irvine, CA). Samples from experimental groups were compared on the same blots, and routinely checked with loading controls. Note that: insulin-sensitive 70 kDa aPKC is largely PKC-ζ in mouse brain and orthologous PKC-ι (98% aa homology) in monkey and other primate brains; brain PKC-ζ exists largely as a 50 kDa moiety that, lacking a regulatory domain, is constitutively-active and unresponsive to insulin.
(§4) Where indicated, mice were randomly treated with insulin (1 unit/kg/bw i.p.) 15 min before being euthanized by administration of xylazine/ketamine, followed by whole-body perfusion with PBS and rapid removal of brain and other tissues.

Aβ1-40/42 [2] = experiment: Aβ1-40/42 levels in LA1-5s neuroblastoma cells; format: cell-based, human; settings: for effect on levels of Aβ1-40/42: LA1-5s cells
Method: (§5) Relative bar values in panel a are mean±SEM of 6 determinations. Asterisks: *, P<0.05; **, P<0.01; ***, P<0.001 (ANOVA). Values in panel b are means of 2-4 determinations.
(§6) Shown here are Mean±SEM (N=4) values relative to the mean initial basal or insulin-stimulated level of indicated immunoreactive protein/peptide. Asterisks: *, P<0.05; **, P<0.01; ***, P<0.001 (ANOVA).
as §3

Akt [3] = experiment: Akt activity in human hepatocytes; format: cell-based; settings: normal human hepatocytes, 100 μM metformin, preliminary studies
Excerpt: (§7) Relative values. Mean±SEM (N=4-8). Asterisks: *, P<0.05; **, P<0.01; ***, P<0.001.

aPKC [4] = experiment: aPKC activity in human hepatocytes; format: cell-based; settings: normal human hepatocytes, 100 μM metformin, preliminary studies
Excerpt: as §7

aPKC [5] = experiment: aPKC activity in LA1-5s neuroblastoma cells; format: cell-based, human
phospho-thr-231-tau = phospho-thr-231-tau levels in LA1-5s neuroblastoma cells; format: cell-based, human; settings: LA1-5s cells, metformin alone
Method: as §6, §3

[6] = test system: SREBP-1c, FAS, ACC, PEPCK, G6Pase, and PGC-1α; experiment: expression of lipogenic and gluconeogenic enzymes in human hepatocytes; format: cell-based
Excerpt: Relative values are Mean±SEM (N=4-8). Asterisks: *, P<0.05; **, P<0.01; ***, P<0.001. ANOVA.

β-secretase (BACE1) [7] = experiment: β-secretase activity (BACE1) in LA1-5s neuroblastoma cells; format: cell-based, human; settings: LA1-5s cells
Method: as §5, §6
(§8) β-Secretase Activity (BACE1; beta-site APP-cleaving enzyme-1). β-Secretase was measured was measured using a kit from Thermo-Fisher.

Akt [8] = experiment: Akt activity in LA1-5s neuroblastoma cells; format: cell-based, human; settings: 200 nM insulin
Method: as §5, §6, §3

[9] = test system: Akt substrates, GSK3β and mTOR; experiment: phosphorylation of Akt substrates in LA1-5s neuroblastoma cells; format: cell-based, human; settings: 200 nM insulin
Method: as §5, §3

β-secretase (BACE1) [10] = experiment: brain β-secretase activity (BACE1) in mice; format: in vivo, mouse; settings: normal WT mice, insulin 1 U/kg i.p. 15 min
Excerpt: Mouse Studies. Brain samples were obtained from normal and insulin-resistant mice and monkeys used previously, and includes mice originally used in studies of insulin signaling and resistance in liver: (a) 4-6 month old C57Bl/6 mice used in studies of high-fat-feeding [USF Vivarium] [6]; 4-6 month-old male C57Bl/6 ob/ob and lean ob+ mice (Jackson Labs, Bar Harbor, Maine); and (c) 10-12 month-old C57Bl/6 Het-MλKO mice [USF Vivarium] [8]. Males and females were comparably present in experimental groups, and sex didn't appreciably alter combined findings. Hepatic alterations, clinical characteristics and ameliorating effects of liver-selective aPKC inhibitors were reported previously. […] Where indicated, Het-MλKO were injected subcutaneously (SC) once daily for 8 days with saline or 1H-imidazole-4-carboxamide,5-amino]-(2,3-dihydroxy-4-[(phosphono-oxy)methyl]cyclopentane-[1R-(1a,2b,3b,4a)] (ICAPP) 0.4 mg/kg body weight) in saline, to inhibit hepatic aPKC, and thus diminish aPKC-dependent expression of hepatic gluconeogenic and lipogenic enzymes, and thereby reduce serum insulin levels to near-normal. Where indicated normal mice were given a single SC injection of saline or saline containing 1.5 mg/kg ICAPP to follow time-related alterations in brain signaling factors. Where indicated, mice were treated intraperitoneally (IP) with insulin (1 U/kg body weight) or vehicle 15-min before euthanization by administration of Xylazine/Ketamine, followed by whole body perfusion with phosphate-buffered saline and rapid removal of brain and other tissues.
as §2, §8

Akt [11] = experiment: brain Akt phosphorylation/activity in mice; format: in vivo, mouse; settings: control mice, insulin 1 unit/kg i.p. 15 min
Excerpt: as §1, §2, §3, §4

Aβ1-40/42 [12] = experiment: brain Aβ1-40/42 peptide levels in mice; format: in vivo, mouse; settings: control mice, insulin 1 unit/kg i.p. 15 min
Excerpt: as §1, §2, §3, §4

[13] = neuroblastoma cells, 200 nM insulin, 1 hour

For `O=C(O)CC([S-])C(=O)O.[Au+]` (stereo not drawn) [ATM, aurothiomalate], the “serum insulin levels / hyperinsulinemia” value ([1]; Het-MλKO mice, reported previously) is given as “fully/sufficiently improved; also recorded: reduced serum insulin levels to normal”.
In the case of `NC(=O)c1ncn([C@@H]2C[C@H](CO)[C@@H](O)[C@H]2O)c1N` [ICAP, reference compound], the “acute effects of insulin on CNS aPKC activity” value (70 kDa PKC-λ/ι; normal mice, doses employed in the initial studies) is listed as “unable to diminish acute effects of insulin on CNS aPKC activity” and the “hyperinsulinemia, with regard to hyperactivation of CNS Akt and aPKC” value ([1]; HFF and ob/ob mice, doses effective on hepatic aPKC, initial studies) is listed as “did not improve hyperinsulinemia sufficiently”.
With `CN(C)C(=N)N=C(N)N` [metformin] the “effect on levels of Aβ1-40/42” value (Aβ1-40/42 [2]; metformin alone) was “increase”, the “Akt activation and action” value (Akt [3]) was “impairments in Akt activation and action” and the aPKC activity (aPKC [4]) was “increases in aPKC activity”. For the same molecule, the “effect on aPKC activity” value (aPKC [5]; LA1-5s cells, metformin alone) was “increase”, the “effect on levels of phospho-thr-231-tau” value (phospho-thr-231-tau) was “increase” and the “SREBP-1c activity and expression of lipogenic enzymes” value ([6]; hepatocytes, metformin) was “increases in activity of SREBP-1c and SREBP-1c-dependent expression of lipogenic enzymes”. For the same molecule, the gluconeogenic enzyme expression ([6]; normal human hepatocytes, 100 μM metformin, preliminary studies) was “increases in gluconeogenic enzyme expression” and the “effect on β-secretase activity” value (β-secretase (BACE1) [7]; metformin alone) was “increase”.
In the case of insulin, the “effect on levels of Aβ1-40/42” value (Aβ1-40/42 [2]; 200 nM insulin, 24 hours) was “elicited increases”, the “effect on Aβ1-40/42 peptide levels” value (Aβ1-40/42 [2]; [13]) was “can increase” and the “effect on Akt activity” value (Akt [8]; LA1-5s cells, 24 hours) was “elicited increases”. The “effect on Akt activity” value (Akt [8]; neuroblastoma cells, 1 hour) was “can increase”, the “brain aPKC activity” value (70 kDa PKC-λ/ι; control mice, insulin 1 unit/kg i.p. 15 min) was “provoked increases” and the “effect on phosphorylation of Akt substrates, GSK3β and mTOR” value ([9]; LA1-5s cells, 24 hours) was “elicited increases”. The “effect on Akt-dependent GSK3β and mTOR phosphorylation” value ([9]; neuroblastoma cells, 1 hour) was “can increase”, the “effect on aPKC activity” value (aPKC [5]; LA1-5s cells, 200 nM insulin, 24 hours) was “elicited increases” and the “effect on aPKC activity” value (aPKC [5]; [13]) was “can increase”. The “brain β-secretase activity (BACE1)” value (β-secretase (BACE1) [10]) was “accompanied by increases”, the “brain Akt activity” value (Akt [11]) was “provoked increases” and the “brain Aβ1-40/42 peptide levels” value (Aβ1-40/42 [12]) was “increased”. For the same molecule, the “effect on activity of β-secretase” value (β-secretase (BACE1) [7]; 200 nM insulin, 24 hours) was “elicited increases”.
